Data on one compound can be found in publication PMC10870435, “A novel complement C3 inhibitor CP40-KK protects against experimental pulmonary arterial hypertension via an inflammasome NLRP3 associated pathway” (Journal of Translational Medicine, 2024).

Data set [1] relates to rat complement C3 function. Kind of data set: CH50 test (Mayer method) in vitro, peptide added to rat plasma. The class given is biochemical. Particulars: 0, 2.5, 5.0, 10, 20, 40 µM added to mixed wild-type SD rat plasma; sensitized sheep erythrocytes. The procedure: The total functional complement was determined with a CH50 assay based on the modified method of Mayer. The 50% haemolytic standard tube was made by adding 0.3 ml 2% sheep erythrocytes (Chundubio, Wuhan, China) to 1.2 ml distilled water and then diluting with equivoluminal veronal buffer saline (Leagene, Beijing, China). The sheep erythrocytes were sensitized by adding a designated volume of a predetermined concentration of rabbit haemolytic serum (Solarbio, Beijing, China) in veronal buffer saline. The plasma of rats was first prediluted in veronal buffer saline at 1/5, 1/10, and 1/20. […] The OD values of supernatant liquid in the ten tubes were measured at 541 nm and compared with that of the 50% haemolytic standard tube to get the most similar value. The total haemolytic complement (CH50) = dilution ratio / the quantity of plasma needed to induce 50% lysis of sheep erythrocytes.
Plasma samples for biological assays from rats were centrifuged and stored at -80°C until used, and the total functional complement was determined with a CH50 assay based on the modified method of Mayer. This assay involves determining the quantity of plasma needed to induce 50% lysis of sheep erythrocytes sensitized with antibody anti-sheep erythrocytes. […] The total hemolytic complement (CH50) = dilution ratio / the quantity of plasma needed to induce 50% lysis of sheep erythrocytes^5-7.

In another data set the test system is C3 activation (C3a). Kind of data set: Plasma C3a western blot in PAH rats. Particulars: western blot of rat plasma; n = 6 per group. Format: in vivo. The procedure:
In the current study, two animal experiments were conducted successively. 30 rats were randomly divided into two groups (control group and MCT group, n = 15 per group) in the first experiment. MCT group rats received a single intraperitoneally injection of MCT (40 mg/kg) on day 1 to induce PAH while control group rats received an equivoluminal saline injection intraperitoneally. For the second animal experiment, the rats were assigned into four groups (control group, MCT group, CP40-KK group, and MCT + CP40-KK group, n = 15 per group). The control group was given the same volume of saline subcutaneously while the CP40-KK group rats only received CP40-KK (2 mg/kg) by subcutaneous injection from day 15 to day 28 continuously. […]
[…] Protein concentration was quantified using a BCA reagent. […] To compare and quantify levels of proteins, the density of each band was measured using Image J software. Equal loading for total cell or tissue lysates was determined by β-Actin western blot.
[…] Protein concentration was quantified using a BCA reagent. […] To compare and quantify levels of proteins, the density of each band was measured using Image J software. Equal loading for total cell or tissue lysates was determined by β-Actin western blot^3,4.

The conditions of data set [2]: cited from earlier work. From the text:
The selective C3 inhibitor CP40 has been found therapeutically effective in various diseases, but has yet not been tested in the PAH model. In the current study, we applied the newly identified CP40 analog, CP40-KK, with two more lysine attached to the C terminus, in the MCT-induced PAH rat model.

Bridge positions count the residues as written; N and C are the ends. Square brackets hold non-standard residues; d marks the D form. Peptide text beside a SMILES is read from it. Trp(1-Me) = Cn1cc(C[C@H](N)C(=O)O)c2ccccc21; NMeI = CC[C@H](C)[C@H](NC)C(=O)O; Sar = CNCC(=O)O Where only a bound is given, the exact number is not on record here.

Turning to `CC[C@H](C)[C@H](NC(=O)[C@H](N)Cc1ccc(O)cc1)C(=O)N[C@H]1CSSC[C@@H](C(=O)N(C)[C@H](C(=O)N[C@@H](CCCCN)C(=O)N[C@@H](CCCCN)C(N)=O)[C@@H](C)CC)NC(=O)[C@H](CCCNC(=N)N)NC(=O)[C@H](Cc2c[nH]cn2)NC(=O)CN(C)C(=O)[C@H](Cc2c[nH]c3ccccc23)NC(=O)[C@H](CC(=O)O)NC(=O)[C@H](CCC(N)=O)NC(=O)[C@H](Cc2cn(C)c3ccccc23)NC(=O)[C@H](C(C)C)NC1=O` [CP40-KK] (H-[dY]ICV[Trp(1-Me)]QDW[Sar]HRC[NMeI]KK-NH2; disulfide 3-12 (inferred)), in data set [1], the “CH50 value (rat C3 function) in vitro” value is on record as “blocked rat C3 function in a dosage-dependent manner”. The “plasma C3a (C3 activation ex vivo)” value in the data set with C3 activation (C3a) was “significantly inhibit the C3 activation”. The “improvement in solubility in comparison with parental peptide CP40” value in data set [2] (at physiological pH) is listed as over 200 fold. In addition, in data set [2] (non-human primates), the “apparent clearance compared to CP40 (decreased)” value was about 2.6 fold, the “maximum concentration compared to CP40 (higher)” value is given as “twofold” and the “terminal half-life compared to CP40 (higher)” value is “fivefold”.
